# Experimental data reported in patent US12673039B2, “Methods of inducing autophagy using coumarin derivatives and related compounds” (Buck Institute for Research on Aging, priority 2019, dated 2026).
# Columns and labels:
# human FXR = biological target: T1, human FXR (Homo sapiens, UniProt Q96RI1); experiment: Human FXR antagonist reporter assay; format: cell-based
# T1 construct: purchased Cayman
# T1 sequence (Q96RI1 1-486): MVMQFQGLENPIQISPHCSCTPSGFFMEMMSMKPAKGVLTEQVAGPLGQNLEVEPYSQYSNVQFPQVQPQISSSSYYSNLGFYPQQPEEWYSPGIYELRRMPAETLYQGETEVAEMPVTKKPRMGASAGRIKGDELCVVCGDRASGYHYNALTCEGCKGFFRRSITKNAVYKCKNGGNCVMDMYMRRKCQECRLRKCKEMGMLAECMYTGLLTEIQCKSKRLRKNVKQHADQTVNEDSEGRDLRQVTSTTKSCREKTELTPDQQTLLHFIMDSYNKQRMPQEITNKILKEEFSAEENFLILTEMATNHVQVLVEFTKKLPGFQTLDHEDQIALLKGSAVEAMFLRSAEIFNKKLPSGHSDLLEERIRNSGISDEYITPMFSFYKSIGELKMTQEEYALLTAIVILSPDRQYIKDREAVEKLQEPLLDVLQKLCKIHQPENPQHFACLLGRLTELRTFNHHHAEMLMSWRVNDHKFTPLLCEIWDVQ
# Protocol: FIG. 7 illustrates that coumarin 106 (“C1”, “AIC106”) acts as a potent FXR antagonist. The ability of C1 (AIC106) (10 μM and 30 μM) to inhibit activation of the FXR agonist […] (GW, 150 μM) was interrogated using a commercially available kit (Indigo Biosciences) versus the established natural FXR ligands TUDCA and UDCA (50 μM and 100 μM). Values are fold induction versus untreated controls; ****p<0.01 versus GW; **p<0.05 versus GW.
# FIG. 23, panels A-H: FXR modulation enhances HLH-30 expression in human neuronal SH-SY5Y cells. Panel A) Effects of AIC106 on human FXR activity was determined in a mammalian one-hybrid based kit assay by quantifying changes in the luciferase activity of FXR ligand (GW4064, GW) induced treatment. […] Panel B) Protein expression of TFEB, cathepsin-D (CAT-D) and small heterodimer partner-1 (SHP-1) was determined by immunoblot in neuronal SH-SY5Y cells post-24 hours of treatment with AIC106 and DMSO-control. […] Autophagic flux in DMSO-control and AIC106 treated neuronal cells was determined by quantifying levels of autophagosome specific LC3-II protein both in presence and absence of autophagy inhibitor bafliomycin A1 (Baf A, 10 nM). […]
# Antagonistic activity of the AIC106 on human FXR was determined using a commercially available FXR Human reporter assay kit (Cayman) according to the supplied manual. […] Luminescence was quantified. […]
# SH-SY5Y cells = experiment: Autophagic flux (LC3-II ± bafilomycin A1) in SH-SY5Y cells; format: cell-based, human; conditions: presence and absence of bafliomycin A1
# Protocol: FIG. 23, panels A-H: FXR modulation enhances HLH-30 expression in human neuronal SH-SY5Y cells. Panel A) Effects of AIC106 on human FXR activity was determined in a mammalian one-hybrid based kit assay by quantifying changes in the luciferase activity of FXR ligand (GW4064, GW) induced treatment. [N=3 independent experiments (mean±SD). ****p<0.0001, by one-way ANOVA with Tukey's multiple comparisons test]. Panel B) Protein expression of TFEB, cathepsin-D (CAT-D) and small heterodimer partner-1 (SHP-1) was determined by immunoblot in neuronal SH-SY5Y cells post-24 hours of treatment with AIC106 and DMSO-control. Panel C) AIC106 enhances autophagic flux in neuronal SH-SY5Y cells. Autophagic flux in DMSO-control and AIC106 treated neuronal cells was determined by quantifying levels of autophagosome specific LC3-II protein both in presence and absence of autophagy inhibitor bafliomycin A1 (Baf A, 10 nM). Panel D) Relative fold change in the band intensity of LC3-II protein, normalized to loading control actin. Values are relative to DMSO-control. […] Panel E) Effects of AIC106 treatment for 72 hours on basal TAU and phosphorylated-TAU in differentiated human neuronal SH-SHY5Y and heterozygous TSC1(+/−) mutant SH-SY5Y neuronal cells were quantitated by immunoblotting following total protein extraction. […]
structure (smiles),measurement,setting,value
"O=c1oc2c3c4c(cc2c2c1CCC2)CCCN4CCC3 [C1, 2,3,6,7,10,11-Hexahydro-1H,5H-cyclopenta(3,4)(1)benzopyrano(6,7,8-ij)quinolizin-12(9H)-one]",FXR activation elicited by the FXR agonist GW4064,human FXR; C1 10 μM and 30 μM versus TUDCA and UDCA (FIG. 7),significantly inhibited FXR activation
same,ligand-induced activation of human FXR,"human FXR; FXR ligand GW4064 (FIG. 23, panel A)",prevented ligand-induced activation of the human FXR protein
same,autophagic flux (LC3 turnover),SH-SY5Y cells,enhanced autophagic flux
